The compounds below were run against recombinant human renin (Homo sapiens (Human), UniProt P00797) (assay: Renin inhibitory activity in vitro, FRET assay (item 2)). Details: recombinant human renin 0.5 nM, 2 h at 37° C., pH 7.4, peptide substrate 4 μM.
Chain of recombinant human renin (P00797 67-406): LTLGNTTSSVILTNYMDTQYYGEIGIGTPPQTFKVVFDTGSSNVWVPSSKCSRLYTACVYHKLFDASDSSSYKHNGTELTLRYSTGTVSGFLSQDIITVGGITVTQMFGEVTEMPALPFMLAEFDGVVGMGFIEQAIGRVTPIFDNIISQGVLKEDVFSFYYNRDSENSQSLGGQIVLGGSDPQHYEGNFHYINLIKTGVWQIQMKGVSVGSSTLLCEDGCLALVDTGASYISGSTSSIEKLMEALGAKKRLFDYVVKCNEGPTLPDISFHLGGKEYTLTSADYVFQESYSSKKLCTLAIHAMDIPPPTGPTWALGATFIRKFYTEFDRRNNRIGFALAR
Format: biochemical
Method: Inter alia the following in vitro tests may be used: • 1) Recombinant human renin (expressed in Chinese Hamster Ovary cells and purified using standard methods) at 7.5 nM concentration is incubated with test compound at various concentrations for 1 h at RT in 0.1 M Tris-HCl buffer, pH 7.4, containing 0.05 M NaCl, 0.5 mM EDTA and 0.05% CHAPS. Synthetic peptide substrate […] is added to a final concentration of 2 μM and increase in fluorescence is recorded at an excitation wave-length of 350 nm and at an emission wave-length of 500 nm in a microplate spectro-fluorimeter. IC50 values are calculated from percentage of inhibition of renin activity as a function of test compound concentration (Fluorescence Resonance Energy Transfer, FRET, assay). […] Synthetic peptide substrate […] is added to a final concentration of 4 μM and increase in fluorescence is recorded at an excitation wave-length of 340 nm and at an emission wave-length of 485 nm in a microplate spectro-fluorimeter. IC50 values are calculated from percentage of inhibition of renin activity as a function of test compound concentration (Fluorescence Resonance Energy Transfer, FRET, assay). […] The enzyme reaction is stopped by adding an excess of a blocking inhibitor. The product of the reaction is separated by capillary electrophoresis and quantified by spectrophotometric measurement at […] wave-length. IC50 values are calculated from percentage of inhibition of renin activity as a function of test compound concentration. […] The enzyme reaction is stopped by adding an excess of a blocking inhibitor. The product of the reaction is separated by capillary electrophoresis and quantified by spectrophotometric measurement at […] wave-length. IC50 values are calculated from percentage of inhibition of renin activity as a function of test compound concentration. […] Renin inhibitory activity was assessed in vitro by the method as outlined above in item 2).
Compound `CCOC[C@@H](CC(C)C)NC(=O)[C@@H]1CNC[C@H](C(=O)N(c2ccc(C(C)C)cn2)C2CC2)C1` [Example 1] has an IC50 of 0.9 nM. For `CCOC[C@@H](NC(=O)[C@@H]1CNC[C@H](C(=O)N(c2ccc(C(C)C)cn2)C2CC2)C1)C1CCCCC1` [Example 2], the IC50 was 3 nM. `CCOC[C@@H](CC(C)C)NC(=O)[C@@H]1CNC[C@H](C(=O)N(CC(C)C)c2cc(OCCCOC)c(C(C)C)cn2)C1` [Example 3] was tested, and the IC50 was 0.6 nM. `CCOC[C@@H](CC(C)C)NC(=O)[C@@H]1CNC[C@H](C(=O)N(c2cc(OC)c(C(C)C)cn2)C2CC2)[C@@H]1O` [Example 13] was tested, and the IC50 was 0.8 nM. Work on `CCOC[C@@H](CC(C)C)NC(=O)[C@@H]1CNC[C@H](C(=O)N(c2cc(OCC)c(CC)cn2)C2CC2)[C@@H]1O` [Example 14] yielded an IC50 of 0.3 nM. `CCOC[C@@H](CC(C)C)NC(=O)[C@@H]1CNC[C@H](C(=O)N(CC(C)C)c2cc(OCCCO)c(C(C)C)cn2)[C@@H]1O` [Example 15] showed an IC50 of 6 nM. For `CCOC[C@H](NC(=O)[C@@H]1CNC[C@H](C(=O)N(c2ccc(C(C)C)cn2)C2CC2)[C@@H]1O)C(C)C` [Example 16], the IC50 was 2.5 nM. `COC[C@H]1CC[C@H](NC(=O)[C@@H]2CNC[C@H](C(=O)N(c3cc(OC)c(C(C)C)cn3)C3CC3)[C@@H]2O)CC1` [Example 17] showed an IC50 of 9 nM. In the case of `CCOC[C@H](NC(=O)[C@@H]1CNC[C@H](C(=O)N(c2cc(OCC)c(CC)cn2)C2CC2)[C@@H]1O)C(C)C` [Example 18], the IC50 is reported as 0.6 nM.
